Experimental data from ChEMBL document CHEMBL5390317, “Novel Indane-Containing NBTIs with Potent Anti-Gram-Negative Activity and Minimal hERG Inhibition” (ACS Med Chem Lett, 2023).
Converted amounts (≈) assume the structure as drawn. The source made the active and inactive calls. The calls are words filed in the database; no cut-off is given here.

Columns and labels:
[1] = tested on: Pseudomonas aeruginosa; experiment: Bactericidal effect against pseudomonas aeruginosa ATCC 27853 infected in neutropenic CD-1 lung infection mouse model assessed as reduction in colony forming unit in lung at 45 mg/kg, sc TID administered at […] interval for 24 hrs; assay type: functional
[2] = tested on: Escherichia coli; experiment: Antibacterial activity against Escherichia coli ATCC 25922 assessed as inhibition in bacterial growth incubated for 20 to 24 hrs by CLSI based broth microdilution method; assay type: functional; details: time 20-24 hrs
[3] = tested on: Pseudomonas aeruginosa; experiment: Antibacterial activity against pseudomonas aeruginosa ATCC 27853 infected in neutropenic CD-1 lung infection mouse model assessed as reduction in colony forming unit in lung at 45 mg/kg, sc TID administered for 24 hrs; assay type: functional, organism-based
[4] = biological target: DNA gyrase (Escherichia coli, UniProt P0AES4+P0AES6); experiment: Inhibition of Escherichia coli DNA gyrase incubated for 80 mins by Transcreener ADP2 FI assay; assay type: protein-complex assay
[5] = tested on: Pseudomonas aeruginosa; experiment: Antibacterial activity against Pseudomonas aeruginosa NCTC 11451 assessed as inhibition in bacterial growth incubated for 20 to 24 hrs by CLSI based broth microdilution method; assay type: functional; details: Pseudomonas aeruginosa, NCTC 11451, time 20-24 hrs; read-out: MIC
[6] = tested on: Klebsiella pneumoniae; experiment: Antibacterial activity against Klebsiella pneumoniae ATCC 700603 assessed as inhibition in bacterial growth incubated for 20 to 24 hrs by CLSI based broth microdilution method; assay type: functional; details: Klebsiella pneumoniae, ATCC 700603, time 20-24 hrs; read-out: MIC
[7] = tested on: Klebsiella pneumoniae; experiment: Antibacterial activity against Klebsiella pneumoniae ATCC BAA-2146 assessed as inhibition in bacterial growth incubated for 20 to 24 hrs by CLSI based broth microdilution method; assay type: functional; details: Klebsiella pneumoniae, ATCC BAA-2146, time 20-24 hrs; read-out: MIC
[8] = tested on: Acinetobacter baumannii; experiment: Antibacterial activity against Acinetobacter baumannii ATCC 51432 assessed as inhibition in bacterial growth incubated for 20 to 24 hrs by CLSI based broth microdilution method; assay type: functional; details: Acinetobacter baumannii, ATCC 51432, time 20-24 hrs; read-out: MIC
[9] = Cytotoxicity against HEK293 cells; assay type: toxicity, cell-based; details: human
[10] = biological target: T1, hERG (KCNH2) (Homo sapiens, UniProt Q12809); experiment: Inhibition of hERG potassium channel expressed in CHO cells at 10 uM by electrophysiological patch clamp assay relative to control; assay type: toxicity, cell-based; details: CHO cells expressing hERG
T1 sequence (Q12809 whole entry): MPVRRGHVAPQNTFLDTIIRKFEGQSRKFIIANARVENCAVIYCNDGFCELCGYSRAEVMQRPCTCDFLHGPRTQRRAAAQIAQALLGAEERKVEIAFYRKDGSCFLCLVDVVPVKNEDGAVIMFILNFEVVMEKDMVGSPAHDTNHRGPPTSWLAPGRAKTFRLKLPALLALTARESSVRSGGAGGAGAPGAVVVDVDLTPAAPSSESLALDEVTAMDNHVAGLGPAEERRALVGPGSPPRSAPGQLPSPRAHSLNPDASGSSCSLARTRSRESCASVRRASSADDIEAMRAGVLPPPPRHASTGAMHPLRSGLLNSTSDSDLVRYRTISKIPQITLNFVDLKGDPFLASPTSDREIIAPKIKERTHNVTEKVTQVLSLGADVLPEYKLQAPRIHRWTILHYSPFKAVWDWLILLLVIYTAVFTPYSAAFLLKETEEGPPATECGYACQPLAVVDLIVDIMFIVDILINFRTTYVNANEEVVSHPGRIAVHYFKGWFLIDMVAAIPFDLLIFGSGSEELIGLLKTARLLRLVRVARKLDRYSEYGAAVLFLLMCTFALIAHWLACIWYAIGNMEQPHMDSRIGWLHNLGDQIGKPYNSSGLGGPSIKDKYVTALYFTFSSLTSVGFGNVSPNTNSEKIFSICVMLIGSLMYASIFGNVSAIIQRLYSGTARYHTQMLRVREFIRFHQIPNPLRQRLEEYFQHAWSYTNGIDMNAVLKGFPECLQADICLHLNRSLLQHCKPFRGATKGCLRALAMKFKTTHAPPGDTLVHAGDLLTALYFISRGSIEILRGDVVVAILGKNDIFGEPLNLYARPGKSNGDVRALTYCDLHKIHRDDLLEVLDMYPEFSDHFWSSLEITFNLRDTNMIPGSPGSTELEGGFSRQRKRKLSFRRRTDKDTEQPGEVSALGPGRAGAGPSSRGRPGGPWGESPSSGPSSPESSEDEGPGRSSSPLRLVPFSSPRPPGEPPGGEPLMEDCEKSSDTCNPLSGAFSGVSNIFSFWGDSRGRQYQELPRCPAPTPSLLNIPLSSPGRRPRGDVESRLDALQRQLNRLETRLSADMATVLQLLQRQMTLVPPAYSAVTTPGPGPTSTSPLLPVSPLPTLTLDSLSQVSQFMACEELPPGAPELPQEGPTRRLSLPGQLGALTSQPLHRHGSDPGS

[11] = tested on: Klebsiella pneumoniae; experiment: Antibacterial activity against Klebsiella pneumoniae ATCC 10031 assessed as inhibition in bacterial growth incubated for 20 to 24 hrs by CLSI based broth microdilution method; assay type: functional; details: time 20-24 hrs
[12] = Stability in rat hepatocyte; assay type: ADME, cell-based; details: hepatocytes
[13] = tested on: Staphylococcus aureus; experiment: Antibacterial activity against Staphylococcus aureus ATCC BAA-1556 assessed as inhibition in bacterial growth incubated for 20 to 24 hrs by CLSI based broth microdilution method; assay type: functional; details: Staphylococcus aureus, ATCC BAA-1556, time 20-24 hrs; read-out: MIC
[14] = Protein binding in mouse plasma assessed as free fraction; assay type: ADME, cell-free
[15] = tested on: Acinetobacter baumannii; experiment: Antibacterial activity against Acinetobacter baumannii ATCC BAA-747 assessed as inhibition in bacterial growth incubated for 20 to 24 hrs by CLSI based broth microdilution method; assay type: functional; details: Acinetobacter baumannii, ATCC BAA-747, time 20-24 hrs; read-out: MIC
[16] = tested on: Pseudomonas aeruginosa; experiment: Bacteriostatic effect against pseudomonas aeruginosa ATCC 27853 infected in neutropenic CD-1 lung infection mouse model assessed as reduction in colony forming unit at 15 mg/kg, sc TID administered at 8 hrs interval for 24 hrs; assay type: functional, organism-based
[17] = biological target: T1, hERG (KCNH2); experiment: Inhibition of hERG potassium channel expressed in CHO cells at 1 uM by electrophysiological patch clamp assay relative to control; assay type: toxicity, cell-based; details: CHO cells expressing hERG
[18] = biological target: CYP3A4 (Homo sapiens, UniProt P08684); experiment: Inhibition of CYP3A4 (unknown origin) at 10 uM relative to control; assay type: ADME
CYP3A4, sequence (P08684 whole entry): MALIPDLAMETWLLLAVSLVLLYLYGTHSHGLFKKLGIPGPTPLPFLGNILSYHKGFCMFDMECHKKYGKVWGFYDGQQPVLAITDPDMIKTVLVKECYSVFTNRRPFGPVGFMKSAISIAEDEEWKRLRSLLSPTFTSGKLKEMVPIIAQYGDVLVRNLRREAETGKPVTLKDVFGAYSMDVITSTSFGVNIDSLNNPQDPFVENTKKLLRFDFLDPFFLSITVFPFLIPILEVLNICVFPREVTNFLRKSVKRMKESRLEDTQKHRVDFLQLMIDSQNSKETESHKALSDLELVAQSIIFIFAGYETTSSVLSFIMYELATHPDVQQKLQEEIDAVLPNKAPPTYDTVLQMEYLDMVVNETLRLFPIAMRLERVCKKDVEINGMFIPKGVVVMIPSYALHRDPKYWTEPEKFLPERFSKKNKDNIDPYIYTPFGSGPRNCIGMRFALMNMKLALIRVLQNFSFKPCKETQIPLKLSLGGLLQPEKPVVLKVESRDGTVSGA

[19] = tested on: Pseudomonas aeruginosa; experiment: Antibacterial activity against Pseudomonas aeruginosa ATCC 27853 assessed as inhibition in bacterial growth incubated for 20 to 24 hrs by CLSI based broth microdilution method; assay type: functional; details: time 20-24 hrs
[20] = Inhibition of Escherichia coli topoisomerase 4 incubated for 120 mins by Transcreener ADP2 FI assay
[21] = Stability in rat microsome; assay type: ADME; details: microsomes
[22] = Drug excretion in Wistar-Han rat urine assessed as parent compound remaining at 3 mg/kg, iv administered upto 48 hrs by LC-MS/MS method; assay type: ADME, organism-based; details: read-out: Drug excretion
[23] = Aqueous solubility of the compound at pH 6.5 at > 0.5 mg/ml; assay type: physicochemical; details: buffer
[24] = tested on: Acinetobacter baumannii; experiment: Antibacterial activity against Acinetobacter baumannii ATCC 19606 assessed as inhibition in bacterial growth incubated for 20 to 24 hrs by CLSI based broth microdilution method; assay type: functional; details: time 20-24 hrs
[25] = tested on: Pseudomonas aeruginosa; experiment: Antibacterial activity against pseudomonas aeruginosa ATCC 27853 infected in neutropenic CD-1 lung infection mouse model assessed as reduction in colony forming unit in lung at 15 mg/kg, sc TID administered at 8 hrs interval for 24 hrs; assay type: functional, organism-based
[26] = tested on: Pseudomonas aeruginosa; experiment: Antibacterial activity against Pseudomonas aeruginosa NCTC 13437 assessed as inhibition in bacterial growth incubated for 20 to 24 hrs by CLSI based broth microdilution method; assay type: functional; details: Pseudomonas aeruginosa, NCTC 13437, time 20-24 hrs; read-out: MIC
[27] = Stability in mouse hepatocyte; assay type: ADME, cell-based; details: hepatocytes
[28] = biological target: T1, hERG (KCNH2); experiment: (§1) Inhibition of hERG potassium channel expressed in CHO cells by electrophysiological patch clamp assay; assay type: toxicity, cell-based; details: human, CHO cells expressing hERG
[29] = biological target: Voltage-gated inwardly rectifying potassium channel KCNH2 (Homo sapiens, UniProt Q12809); experiment: as §1; assay type: toxicity, cell-based
Voltage-gated inwardly rectifying potassium channel KCNH2, sequence (Q12809 whole entry): as the sequence (Q12809 whole entry) above

[30] = Protein binding in human plasma assessed as free fraction; assay type: ADME, cell-free
[31] = tested on: Escherichia coli; experiment: Antibacterial activity against Escherichia coli K-12 BW25113 deltaTolC assessed as inhibition in bacterial growth incubated for 20 to 24 hrs by CLSI based broth microdilution method; assay type: functional; details: time 20-24 hrs
[32] = tested on: Klebsiella pneumoniae; experiment: Antibacterial activity against Klebsiella pneumoniae ATCC BAA-1705 assessed as inhibition in bacterial growth incubated for 20 to 24 hrs by CLSI based broth microdilution method; assay type: functional; details: time 20-24 hrs
[33] = Protein binding in rat plasma assessed as free fraction; assay type: ADME, cell-free
[34] = tested on: Staphylococcus aureus; experiment: Antibacterial activity against Staphylococcus aureus ATCC 29213 assessed as inhibition in bacterial growth incubated for 20 to 24 hrs by CLSI based broth microdilution method; assay type: functional; details: Staphylococcus aureus, ATCC 29213; time 20-24 hrs; read-out: MIC
[35] = Stability in mouse microsome; assay type: ADME; details: microsomes
[36] = biological target: CYP2D6 (Homo sapiens, UniProt P10635); experiment: Inhibition of CYP2D6 (unknown origin) at 10 uM relative to control; assay type: ADME
CYP2D6, sequence (P10635 whole entry): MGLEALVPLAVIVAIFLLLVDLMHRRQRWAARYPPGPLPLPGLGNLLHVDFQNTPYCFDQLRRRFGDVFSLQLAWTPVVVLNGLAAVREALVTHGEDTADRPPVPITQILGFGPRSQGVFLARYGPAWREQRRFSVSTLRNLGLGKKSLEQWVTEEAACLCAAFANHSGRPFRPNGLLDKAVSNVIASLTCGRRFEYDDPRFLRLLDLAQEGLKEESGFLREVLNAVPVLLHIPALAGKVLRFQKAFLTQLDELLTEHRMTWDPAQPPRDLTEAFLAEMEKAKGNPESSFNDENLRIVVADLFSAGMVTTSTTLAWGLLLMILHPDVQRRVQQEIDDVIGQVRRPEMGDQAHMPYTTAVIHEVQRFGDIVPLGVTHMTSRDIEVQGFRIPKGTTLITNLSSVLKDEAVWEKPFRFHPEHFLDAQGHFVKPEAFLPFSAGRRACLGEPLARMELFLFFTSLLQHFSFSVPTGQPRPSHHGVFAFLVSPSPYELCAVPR

[37] = tested on: Escherichia coli; experiment: Antibacterial activity against Escherichia coli ATCC 35218 assessed as inhibition in bacterial growth incubated for 20 to 24 hrs by CLSI based broth microdilution method; assay type: functional; details: Escherichia coli, ATCC 35218, time 20-24 hrs; read-out: MIC
[38] = tested on: Escherichia coli; experiment: Antibacterial activity against Escherichia coli ATCC BAA-2340 assessed as inhibition in bacterial growth incubated for 20 to 24 hrs by CLSI based broth microdilution method; assay type: functional; details: Escherichia coli, ATCC BAA-2340, time 20-24 hrs; read-out: MIC
[39] = Stability in human hepatocyte; assay type: ADME, cell-based; details: hepatocytes
[40] = tested on: Escherichia coli; experiment: Antibacterial activity against Escherichia coli K-12 BW25113 assessed as inhibition in bacterial growth incubated for 20 to 24 hrs by CLSI based broth microdilution method; assay type: functional; details: Escherichia coli, K-12 BW25113, time 20-24 hrs; read-out: MIC
[41] = biological target: CYP2C9 (Homo sapiens, UniProt P11712); experiment: Inhibition of CYP2C9 (unknown origin) at 10 uM relative to control; assay type: ADME
CYP2C9, sequence (P11712 whole entry): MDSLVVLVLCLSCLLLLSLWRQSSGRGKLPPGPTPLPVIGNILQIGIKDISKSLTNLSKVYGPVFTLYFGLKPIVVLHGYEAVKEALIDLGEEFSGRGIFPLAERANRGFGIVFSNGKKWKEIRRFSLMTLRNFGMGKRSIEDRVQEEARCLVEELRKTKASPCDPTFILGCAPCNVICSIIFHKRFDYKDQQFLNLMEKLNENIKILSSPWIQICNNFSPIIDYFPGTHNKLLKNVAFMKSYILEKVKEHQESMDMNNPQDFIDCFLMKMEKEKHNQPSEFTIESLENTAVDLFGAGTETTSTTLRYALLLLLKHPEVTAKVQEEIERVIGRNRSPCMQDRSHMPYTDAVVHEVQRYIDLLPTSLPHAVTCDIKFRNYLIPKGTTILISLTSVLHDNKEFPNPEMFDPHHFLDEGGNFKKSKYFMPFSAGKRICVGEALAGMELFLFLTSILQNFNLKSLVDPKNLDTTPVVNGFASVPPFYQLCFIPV

[42] = Stability in human microsome; assay type: ADME; details: microsomes

## NC1(COc2cc(F)c3c(c2)CC(CNCCC2CN(c4cnc5c(n4)NC(=O)CO5)C(=O)O2)C3)CC1 (configuration not stated)
[1]
  Activity: 2.6 log10CFU
[2]
  MIC: 0.125 µg/mL (≈ 0.244 µM)
[3]
  Activity: Active
[4]
  IC50: 60 nM
[5]
  MIC: 1 µg/mL (≈ 1.95 µM)
[6]
  MIC: 1 µg/mL (≈ 1.95 µM)
[7]
  MIC: 2 µg/mL (≈ 3.9 µM)
[8]
  MIC: 2 µg/mL (≈ 3.9 µM)
[9]
  CC50: > 100000 nM
[10]
  inhibition at 10 µM: < 1%
[11]
  MIC: ≤ 0.06 µg/mL
[12]
  Stability: Stable
[13]
  MIC: 0.5 µg/mL (≈ 0.976 µM)
[14]
  fraction unbound: 0.4
[15]
  MIC: 0.5 µg/mL (≈ 0.976 µM)
[16]
  Activity: inactive
[17]
  inhibition at 1 µM: < 1%
[18]
  inhibition at 10 µM: < 25%
[19]
  MIC: 0.25 µg/mL (≈ 0.488 µM)
[20]
  IC50: 30 nM
[21]
  Stability: Stable
[22]
  dose excreted at 48 h: 5%
[23]
  solubility: Soluble
[24]
  MIC: 2 µg/mL (≈ 3.9 µM)
[25]
  Activity: Active
[26]
  MIC: 1 µg/mL (≈ 1.95 µM)
[27]
  Stability: Stable
[28]
  IC20: > 10000 nM
[29]
  IC50: > 20000 nM
[30]
  fraction unbound: 0.4
[31]
  MIC: ≤ 0.06 µg/mL
[32]
  MIC: 1 µg/mL (≈ 1.95 µM)
[33]
  fraction unbound: 0.32
[34]
  MIC: 0.125 µg/mL (≈ 0.244 µM)
[35]
  Stability: Stable
[36]
  inhibition at 10 µM: < 25%
[37]
  MIC: 0.125 µg/mL (≈ 0.244 µM)
[38]
  MIC: 0.25 µg/mL (≈ 0.488 µM)
[39]
  Stability: Stable
[40]
  MIC: 0.06 µg/mL (≈ 0.117 µM)
[41]
  inhibition at 10 µM: < 25%
[42]
  Stability: Stable
